Positions count from the first letter of the chain named.
Assays:
Experiment in all cases: MST binding assay, GLUT3 variant
Details in all cases: read-out: Kd of SA47
GLUT3 F289A = target: T1, GLUT3 F289A (Homo sapiens, UniProt P11169, F289A/N43T)
T1 construct: His10 (N); made in house; host or cells: Sf9 insect cells (baculovirus)
T1 sequence (P11169 1-496 N43T/F289A): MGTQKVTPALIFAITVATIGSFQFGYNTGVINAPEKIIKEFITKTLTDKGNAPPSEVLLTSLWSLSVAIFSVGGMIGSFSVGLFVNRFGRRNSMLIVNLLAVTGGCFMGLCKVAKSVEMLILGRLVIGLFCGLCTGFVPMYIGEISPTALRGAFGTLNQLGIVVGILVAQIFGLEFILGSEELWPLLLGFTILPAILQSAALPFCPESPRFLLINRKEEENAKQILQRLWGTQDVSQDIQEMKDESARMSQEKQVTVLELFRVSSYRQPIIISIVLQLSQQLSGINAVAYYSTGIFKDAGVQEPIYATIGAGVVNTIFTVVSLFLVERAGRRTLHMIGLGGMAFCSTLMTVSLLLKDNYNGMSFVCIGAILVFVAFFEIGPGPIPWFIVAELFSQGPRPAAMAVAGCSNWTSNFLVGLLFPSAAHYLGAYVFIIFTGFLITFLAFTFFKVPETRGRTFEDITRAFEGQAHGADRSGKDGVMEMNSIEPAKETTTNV
Description: (§1) All mutants were generated by standard PCR-based strategy.
(§2) Inhibitors with serial dilutions were mixed with indicated protein. […] MST analyses were conducted on a Monolith NT. […] The MST data was analyzed by Monolith NT.115.

GLUT3 N32A = target: T2, GLUT3 N32A (Homo sapiens, UniProt P11169, N32A/N43T)
T2 construct: His10 (N); made in house; host or cells: Sf9 insect cells (baculovirus)
T2 sequence (P11169 1-496 N32A/N43T): T1 sequence (P11169 1-496 N43T/F289A) with N32A, A289F
Description: as §1, §2

GLUT3 N413A = target: T3, GLUT3 N413A (Homo sapiens, UniProt P11169, N413A/N43T)
T3 construct: His10 (N); made in house; host or cells: Sf9 insect cells (baculovirus)
T3 sequence (P11169 1-496 N43T/N413A): T1 sequence (P11169 1-496 N43T/F289A) with A289F, N413A
Description: as §1, §2

GLUT3 Q159A = target: T4, GLUT3 Q159A (Homo sapiens, UniProt P11169, N43T/Q159A)
T4 construct: His10 (N); made in house; host or cells: Sf9 insect cells (baculovirus)
T4 sequence (P11169 1-496 N43T/Q159A): T1 sequence (P11169 1-496 N43T/F289A) with Q159A, A289F
Description: as §1, §2

GLUT3 W386A = target: T5, GLUT3 W386A (Homo sapiens, UniProt P11169, N43T/W386A)
T5 construct: His10 (N); made in house; host or cells: Sf9 insect cells (baculovirus)
T5 sequence (P11169 1-496 N43T/W386A): T1 sequence (P11169 1-496 N43T/F289A) with A289F, W386A
Description: as §1, §2

COC(=O)CCNCc1ccccc1-n1ncc2c(N3CCN(c4cc(F)ccc4OC)CC3)ncnc21 [SA47]
Kd (GLUT3 F289A): 164 ± 67 nM
Kd (GLUT3 N32A): 941 ± 213 nM
Kd (GLUT3 N413A): 810 ± 214 nM
Kd (GLUT3 Q159A): 4100 ± 800 nM
Kd (GLUT3 W386A): 30300 ± 10700 nM
